From patent US8163756B2 (priority 2004, dated 2012) come the findings set out here.

The target in one experiment is B-Raf(V599E) kinase (Homo sapiens, UniProt P15056, V600E). Briefly: B-Raf(V599E) kinase assay B1 (construct 1, MEK1 substrate, coupled spectrophotometric). In kind it is biochemical. The procedure:
The test compounds were incubated with the reaction mixtureat 30° C. for 2 h. […] The reaction rate was calculated using the […] time frame. […] IC50 values were calculated from a series of percent inhibition values determined at a range of inhibitor concentrations using software routines as implemented in the GraphPad Prism software package.

The target in experiment [1] is phosphorylated p-38-alpha kinase (Homo sapiens, UniProt Q16539). The experiment can be described thus: P-38 alpha kinase assay P1 (coupled spectrophotometric, 2 h pre-incubation). The class given is biochemical. To be noted: method P1 (2 h pre-incubation); read-out: P-38 Data.
Sequence of phosphorylated p-38-alpha kinase (Q16539 1-360 isoform Q16539-2): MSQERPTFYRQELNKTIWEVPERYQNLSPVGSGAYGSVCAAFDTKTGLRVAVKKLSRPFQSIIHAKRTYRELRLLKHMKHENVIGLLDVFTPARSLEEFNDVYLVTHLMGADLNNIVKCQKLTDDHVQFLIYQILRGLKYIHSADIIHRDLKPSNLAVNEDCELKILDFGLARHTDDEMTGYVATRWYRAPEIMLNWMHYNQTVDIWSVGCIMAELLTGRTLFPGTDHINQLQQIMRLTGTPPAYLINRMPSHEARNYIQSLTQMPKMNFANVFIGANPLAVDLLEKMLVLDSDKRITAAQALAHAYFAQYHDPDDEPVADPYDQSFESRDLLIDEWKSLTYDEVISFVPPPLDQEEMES

Sequence of B-Raf(V599E) kinase (P15056 with tags, fused parts or gaps V600E): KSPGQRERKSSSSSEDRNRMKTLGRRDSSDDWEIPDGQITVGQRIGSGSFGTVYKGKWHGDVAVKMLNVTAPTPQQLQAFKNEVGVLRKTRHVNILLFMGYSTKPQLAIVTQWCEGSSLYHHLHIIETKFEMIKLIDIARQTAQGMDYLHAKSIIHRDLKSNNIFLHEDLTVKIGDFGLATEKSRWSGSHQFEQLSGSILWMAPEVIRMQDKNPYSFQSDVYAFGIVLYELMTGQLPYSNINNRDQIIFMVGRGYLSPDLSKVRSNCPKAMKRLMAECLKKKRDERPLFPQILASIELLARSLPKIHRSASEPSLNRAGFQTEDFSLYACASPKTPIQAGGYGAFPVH

Turning to `CC(C)(C)c1cc(NC(=O)Nc2cccc(Cl)c2Cl)n(-c2ccc(CC(=O)NCC(O)CO)cc2)n1` (stereo not shown) [Example 493], the IC50 was found to be 11 nM against B-Raf(V599E) kinase and 4 nM in experiment [1]. The corresponding values for `CC(C)(C)c1ncc(NC(=O)Nc2cccc(Cl)c2Cl)c(-c2ccccc2)n1` [Example 279, 1-(2-t-butyl-4-phenylpyrimidin-5-yl)-3-(2,3-dichlorophenyl)urea] are 697 nM and 1050 nM. In the case of `CC(C)(C)c1cc(NC(=O)Nc2cccc(Cl)c2Cl)n(-c2cccc(CC(=O)N3CCC[C@@H]3CO)c2)n1` [Example 407, 1-(3-t-butyl-1-(3-(2-((R)-2-(hydroxymethyl)pyrrolidin-1-yl)-2-oxoethyl)phenyl)-1H-pyrazol-5-yl)-3-(2,3-dichlorophenyl)urea], the IC50 in experiment [1] came out at 45 nM.

For `O=C(Cc1cccc(-n2nc(-c3ccc(F)cc3)cc2NC(=O)Nc2cccc(Cl)c2Cl)c1)NCCO` [Example 455, 1-(2,3-dichlorophenyl)-3-(3-(4-fluorophenyl)-1-(3-(2-(2-hydroxyethylamino)-2-oxoethyl)phenyl)-1H-pyrazol-5-yl)urea], the IC50 in experiment [1] came out at 82 nM. With `CC(C)(C)c1cc(NC(=O)Nc2ccccc2)n(-c2cc(CC(=O)O)c3ccccc3c2)n1` [Example 301, {3-[3-t-butyl-5-(3-phenylureido)pyrazol-1-yl]naphthalen-1-yl}acetic acid], the IC50 against B-Raf(V599E) kinase was found to be 10 nM; in experiment [1] it was 160 nM. Turning to `CC(C)(C)c1cc(NC(=O)Nc2ccc(Cl)cc2)n(-c2cccc(CO)c2)n1` [Example 224], the IC50 in experiment [1] turned out to be 38 nM. The same measure, in the same setting: for `O=C(Cc1cccc(-n2nc(-c3ccccc3F)cc2NC(=O)N[C@H]2CCc3ccccc32)c1)NCCO` [Example 412, 1-((S)-2,3-dihydro-1H-inden-1-yl)-3-(3-(2-fluorophenyl)-1-(3-(2-(2-hydroxyethylamino)-2-oxoethyl)phenyl)-1H-pyrazol-5-yl)urea] the value was 41 nM; for `O=C(O)Cc1cccc(-n2nc(-c3ccccc3F)cc2NC(=O)N[C@H]2CCc3ccccc32)c1` [Example 360, 2-(3-(5-(3-((S)-2,3-dihydro-1H-inden-1-yl)ureido)-3-(2-fluorophenyl)-1H-pyrazol-1-yl)phenyl)acetic acid], 20 nM; for `CNC(=O)Cc1cccc(-n2nc(C(C)(C)C)cc2NC(=O)Nc2cccc(F)c2F)c1` [Example 401, 1-(3-t-butyl-1-(3-(2-(methylamino)-2-oxoethyl)phenyl)-1H-pyrazol-5-yl)-3-(2,3-difluorophenyl)urea], 63 nM. For `CC(C)(C)c1cc(NC(=O)Nc2ccc(F)c(F)c2F)n(-c2cccc(CC(=O)O)c2)n1` [Example 356, 2-(3-(3-t-butyl-5-(3-(2,3,4-trifluorophenyl)-ureido)-1H-pyrazol-1-yl)phenyl)acetic acid], the IC50 against B-Raf(V599E) kinase came out at 14 nM; in experiment [1], 72 nM. As for `NC(=O)Cc1cccc(-n2nc(-c3cccs3)cc2NC(=O)N[C@H]2CCc3ccccc32)c1` [Example 415, 1-(1-(3-(2-amino-2-oxoethyl)phenyl)-3-(thiophen-2-yl)-1H-pyrazol-5-yl)-3-((S)-2,3-dihydro-1H-inden-1-yl)urea], in experiment [1], the IC50 is 17 nM.

`CC(C)(C)c1cc(NC(=O)Nc2cccc(Cl)c2Cl)n(-c2cccc(CC(=O)N3CCC[C@H]3CO)c2)n1` [Example 408, 1-(3-t-butyl-1-(3-(2-((S)-2-(hydroxymethyl)pyrrolidin-1-yl)-2-oxoethyl)phenyl)-1H-pyrazol-5-yl)-3-(2,3-dichlorophenyl)urea]: the IC50 in experiment [1] is 46 nM. Same read-out and setting: for `O=C(Cc1cccc(-n2nc(-c3cccs3)cc2NC(=O)N[C@H]2CCc3ccccc32)c1)NCC(O)CO` (stereo partly drawn) [Example 417, 1-((S)-2,3-dihydro-1H-inden-1-yl)-3-(1-(3-(2-(2,3-dihydroxypropylamino)-2-oxoethyl)phenyl)-3-(thiophen-2-yl)-1H-pyrazol-5-yl)urea] the value was 29 nM; for `NC(=O)Cc1cccc(-n2nc(-c3ccccc3F)cc2NC(=O)Nc2cccc3ccccc23)c1` [Example 423, 1-(1-(3-(2-amino-2-oxoethyl)phenyl)-3-(2-fluorophenyl)-1H-pyrazol-5-yl)-3-(naphthalen-1-yl)urea], 21 nM.

As for `CC(C)(C)c1cc(NC(=O)NC2CCCCC2)n(-c2cc(CC(N)=O)c3ccccc3c2)n1` [Example 91, 1-(1-(4-(2-amino-2-oxoethyl)naphthalen-2-yl)-3-t-butyl-1H-pyrazol-5-yl)-3-cyclohexylurea], the IC50 at B-Raf(V599E) kinase is 20 nM; in experiment [1], 350 nM. As to `O=C(O)Cc1cccc(-n2nc(-c3nccs3)cc2NC(=O)Nc2cccc(Cl)c2Cl)c1` [Example 359, 2-(3-(5-(3-(2,3-dichlorophenyl)ureido)-3-(thiazol-2-yl)-1H-pyrazol-1-yl)phenyl)acetic acid], the IC50 in experiment [1] amounted to 70 nM.

For `O=C(O)Cc1ccc(-n2nc(-c3ccccc3F)cc2NC(=O)Nc2ccc(F)c(F)c2F)cc1` [Example 388, 2-(4-(3-(2-fluorophenyl)-5-(3-(2,3,4-trifluorophenyl)ureido)-1H-pyrazol-1-yl)phenyl)acetic acid], the IC50 in experiment [1] turned out to be 91 nM.

`COC[C@@H]1CCCN1C(=O)Cc1ccc(-n2nc(C(C)(C)C)cc2NC(=O)Nc2cccc(Cl)c2Cl)cc1` [Example 485, (S)-1-(3-t-butyl-1-(4-(2-(2-(methoxymethyl)pyrrolidin-1-yl)-2-oxoethyl)phenyl)-1H-pyrazol-5-yl)-3-(2,3-dichlorophenyl)urea]: the IC50 in experiment [1] is 12 nM. Consider `NC(=O)Cc1ccc(-n2nc(-c3cccc(F)c3)cc2NC(=O)Nc2cccc(Cl)c2Cl)cc1` [Example 480, 1-(1-(4-(2-amino-2-oxoethyl)phenyl)-3-(3-fluorophenyl)-1H-pyrazol-5-yl)-3-(2,3-dichlorophenyl)urea], for which, in experiment [1], the IC50 came to 73 nM. Regarding `COC[C@@H]1CCCN1C(=O)Cc1cccc(-n2nc(C(C)(C)C)cc2NC(=O)Nc2cccc(Cl)c2Cl)c1` [Example 409, 1-(3-t-butyl-1-(3-(2-((S)-2-(methoxymethyl)pyrrolidin-1-yl)-2-oxoethyl)phenyl)-1H-pyrazol-5-yl)-3-(2,3-dichlorophenyl)urea], the IC50 in experiment [1] is 150 nM.

On to `O=C(Cc1cccc(-n2nc(-c3ccccc3F)cc2NC(=O)Nc2cccc3ccccc23)c1)NCCO` [Example 426, 1-(3-(2-fluorophenyl)-1-(3-(2-(2-hydroxyethylamino)-2-oxoethyl)phenyl)-1H-pyrazol-5-yl)-3-(naphthalen-1-yl)urea], for which the IC50 in experiment [1] amounted to 38 nM. The same measure, in the same setting: in the case of `O=C(O)Cc1ccc(-n2nc(-c3cccs3)cc2NC(=O)N[C@H]2CCc3ccccc32)cc1` [Example 389, 2-(4-(5-(3-((S)-2,3-dihydro-1H-inden-1-yl)ureido)-3-(thiophen-2-yl)-1H-pyrazol-1-yl)phenyl)acetic acid] it was 13 nM. Turning to `CO[C@@H]1CCN(C(=O)Cc2cccc(-n3nc(C(C)(C)C)cc3NC(=O)Nc3cccc(Cl)c3Cl)c2)C1` [Example 444, 1-(3-t-butyl-1-(3-(2-((R)-3-methoxypyrrolidin-1-yl)-2-oxoethyl)phenyl)-1H-pyrazol-5-yl)-3-(2,3-dichlorophenyl)urea], the figures for the IC50 (on B-Raf(V599E) kinase; in experiment [1]) were 20 nM and 63 nM, respectively. As for `CC(C)(C)c1cc(NC(=O)Nc2cccc(Cl)c2Cl)n(-c2cccc(CC(=O)NCC(O)CO)c2)n1` (stereo not shown) [Example 440, 1-(3-t-butyl-1-(3-(2-(2,3-dihydroxypropylamino)-2-oxoethyl)phenyl)-1H-pyrazol-5-yl)-3-(2,3-dichlorophenyl)urea], the IC50 on B-Raf(V599E) kinase turned out to be 4.1 nM; in experiment [1] it was 7 nM. For the compound `NC(=O)Cc1cccc(-n2nc(-c3ccccc3F)cc2NC(=O)Nc2ccc(F)c(F)c2F)c1` [Example 422, 1-(1-(3-(2-Amino-2-oxoethyl)phenyl)-3-(2-fluorophenyl)-1H-pyrazol-5-yl)-3-(2,3,4-trifluorophemyl)urea], the IC50 in experiment [1] is 98 nM. On the same count and under the same terms, for `O=C(Cc1ccc(-n2nc(-c3cccc(F)c3)cc2NC(=O)Nc2cccc(Cl)c2Cl)cc1)NCC(O)CO` (stereo not shown) [Example 481, 1-(2,3-dichlorophenyl)-3-(1-(4-(2-(2,3-dihydroxypropylamino)-2-oxoethyl)phenyl)-3-(3-fluorophenyl)-1H-pyrazol-5-yl)urea] the value was 33 nM; for `O=C(Cc1cccc(-n2nc(-c3ccccc3F)cc2NC(=O)Nc2ccc(F)c(F)c2F)c1)NCC(O)CO` (stereo not shown) [Example 424, 1-(1-(3-(2-(2,3-Dihydroxypropylamino)-2-oxoethyl)phenyl)-3-(2-fluorophenyl)-1H-pyrazol-5-yl)-3-(2,3,4-trifluorophenyl)urea], 47 nM.

With `CC(C)(C)c1ncc(NC(=O)Nc2cccc(Oc3cccnc3)c2)c(-c2ccccc2)n1` [Example 281, 1-(2-t-butyl-4-phenylpyrimidin-5-yl)-3-(3-(pyridin-3-yloxy)phenyl)urea], the IC50 at B-Raf(V599E) kinase is 369 nM; in experiment [1], 5800 nM. As to `CNC(=O)Cc1cccc(-n2nc(C(C)(C)C)cc2NC(=O)Nc2ccc(F)c(F)c2F)c1` [Example 402, 1-(3-t-butyl-1-(3-(2-(methylamino)-2-oxoethyl)phenyl)-1H-pyrazol-5-yl)-3-(2,3,4-trifluorophenyl)urea], the IC50 in experiment [1] turned out to be 26 nM. The same measure, in the same setting: for `COC[C@H]1CCCN1C(=O)Cc1ccc(-n2nc(C(C)(C)C)cc2NC(=O)Nc2cccc(Cl)c2Cl)cc1` [Example 484, (R)-1-(3-t-butyl-1-(4-(2-(2-(methoxymethyl)pyrrolidin-1-yl)-2-oxoethyl)phenyl)-1H-pyrazol-5-yl)-3-(2,3-dichlorophenyl)urea] the value was 13 nM. Consider `CC(C)(C)c1cc(NC(=O)Nc2ccc(F)c(F)c2F)n(-c2ccc(CC(N)=O)cc2)n1` [Example 466, 1-(1-(4-(2-amino-2-oxoethyl)phenyl)-3-t-butyl-1H-pyrazol-5-yl)-3-(2,3,4-trifluorophenyl)urea], for which, in experiment [1], the IC50 was determined as 22 nM. On the same count and under the same terms, in the case of `O=C(O)Cc1cccc(-n2nc(-c3ccccc3F)cc2NC(=O)Nc2cccc3ccccc23)c1` [Example 363, 2-(3-(3-(2-Fluorophenyl)-5-(3-(naphthalen-1-yl)ureido)-1H-pyrazol-1-yl)phenyl)acetic acid] it was 13 nM.
